{"source": "patent US10239832B2", "about": "“N-(1-hydroxy-3-(pyrrolidinyl)propan-2-yl)pyrrolidine-3-carboxamide derivatives as glucosylceramide synthase inhibitors” (BIOMARIN PHARMACEUTICAL INC., priority 2013, dated 2019)", "target": "T1, GCS (Canis lupus familiaris, UniProt A0A8I3MXG6)", "T1 construct": "endogenous in cells; host or cells: MDCK (Madin-Darby canine kidney) cells, whole-cell lysate", "T1 sequence (A0A8I3MXG6 1-394)": "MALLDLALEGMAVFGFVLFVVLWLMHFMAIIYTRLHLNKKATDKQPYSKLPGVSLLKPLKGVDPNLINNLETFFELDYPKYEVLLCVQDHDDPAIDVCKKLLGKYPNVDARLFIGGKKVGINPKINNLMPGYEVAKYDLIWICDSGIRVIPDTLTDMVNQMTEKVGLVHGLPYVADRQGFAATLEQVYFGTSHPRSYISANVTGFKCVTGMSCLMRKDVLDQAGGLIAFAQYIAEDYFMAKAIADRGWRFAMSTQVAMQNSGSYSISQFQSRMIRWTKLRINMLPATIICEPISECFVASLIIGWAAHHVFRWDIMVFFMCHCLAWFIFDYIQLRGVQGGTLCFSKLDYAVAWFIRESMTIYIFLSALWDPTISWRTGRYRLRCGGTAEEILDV", "assay": "GCS enzymatic assay (MDCK cell lysate, NBD-ceramide to glucosylceramide, LC/MS)", "type": "biochemical, canine", "details": "Table 2, the table does not say which of the assays; for IC50: class symbols A, B, C, read-out: Data Range (IC50 values); for Data Range (% inhibition): class symbols D, E, F, NA (not active)", "how_it_was_run": "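Dog MDCK cell lysate served as enzyme source, with NBD-ceramide turned over to glucosylceramide and 0.1% DMSO as mock control. The reaction was stopped with acetonitrile. Both lipids were quantified by LC/MS/MS in ESI positive MRM mode against a tolbutamide internal standard, giving IC50 or percent inhibition.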"}
{"smiles": "O=C(N[C@H](CN1CCCC1)[C@H](O)c1cc(F)c2c(c1)OCCO2)[C@@H]1CCN(c2ccc3cc(Cl)ccc3n2)C1", "note": "[Compound 104, (R)-1-(6-chloroquinolin-2-yl)-N-((1R,2R)-1-(8-fluoro-2,3-dihydrobenzo[b][1,4]dioxin-6-yl)-1-hydroxy-3-(pyrrolidin-1-yl)propan-2-yl)pyrrolidine-3-carboxamide]", "values": [{"measurement": "IC50", "result": "1 to 30", "unit": "nM"}]}
{"smiles": "O=C(N[C@H](CN1CCCC1)[C@H](O)c1cc(F)c2c(c1)OCCO2)[C@@H]1CCN(c2ccc(Cl)c(Oc3ccccn3)c2)C1", "note": "[Compound 105, (R)-1-(4-chloro-3-(pyridin-2-yloxy)phenyl)-N-((1R,2R)-1-(8-fluoro-2,3-dihydrobenzo[b][1,4]dioxin-6-yl)-1-hydroxy-3-(pyrrolidin-1-yl)propan-2-yl)pyrrolidine-3-carboxamide]", "values": [{"measurement": "IC50", "result": "1 to 30", "unit": "nM"}]}
{"smiles": "O=C(N[C@H](CN1CCCC1)[C@H](O)c1ccc2c(c1)OCCO2)[C@@H]1CCN(c2ccc3cccnc3c2)C1", "note": "[Compound 106, (R)-N-((1R,2R)-1-(2,3-dihydrobenzo[b][1,4]dioxin-6-yl)-1-hydroxy-3-(pyrrolidin-1-yl)propan-2-yl)-1-(quinolin-7-yl)pyrrolidine-3-carboxamide]", "values": [{"measurement": "Data Range (% inhibition)", "result": "D (75-100%)"}]}
{"smiles": "CC(C)(O)COc1ccc([C@@H](O)[C@@H](CN2CCCC2)NC(=O)[C@@H]2CCN(c3ccc4ccccc4c3)C2)cc1Cl", "note": "[Compound 107, (R)-N-((1R,2R)-1-(3-chloro-4-(2-hydroxy-2-methylpropoxy)phenyl)-1-hydroxy-3-(pyrrolidin-1-yl)propan-2-yl)-1-(naphthalen-2-yl)pyrrolidine-3-carboxamide]", "values": [{"measurement": "IC50", "result": "1 to 30", "unit": "nM"}]}
{"smiles": "O=C(N[C@H](CN1CCC1)[C@H](O)c1cc(F)c2c(c1)OCCO2)[C@@H]1CCN(c2ccc3cc(Cl)sc3c2)C1", "note": "[Compound 108, (R)-N-((1R,2R)-3-(azetidin-1-yl)-1-(8-fluoro-2,3-dihydrobenzo[b][1,4]dioxin-6-yl)-1-hydroxypropan-2-yl)-1-(2-chlorobenzo[b]thiophen-6-yl)pyrrolidine-3-carboxamide]", "values": [{"measurement": "IC50", "result": "1 to 30", "unit": "nM"}]}
{"smiles": "O=C(N[C@H](CN1CCCC1)[C@H](O)c1ccc(OC2CC2)c(Cl)c1)[C@@H]1CCN(c2ccc3cc(Cl)sc3c2)C1", "note": "[Compound 109, (R)-N-((1R,2R)-1-(3-chloro-4-cyclopropoxyphenyl)-1-hydroxy-3-(pyrrolidin-1-yl)propan-2-yl)-1-(2-chlorobenzo[b]thiophen-6-yl)pyrrolidine-3-carboxamide]", "values": [{"measurement": "IC50", "result": "30 to 100", "unit": "nM"}]}
{"smiles": "O=C(N[C@H](CN1CCCC1)[C@H](O)c1ccc2c(c1)OCCO2)[C@@H]1CCN(c2ccc(Cl)c(Oc3ccccn3)c2)C1", "note": "[Compound 110, (R)-1-(4-chloro-3-(pyridin-2-yloxy)phenyl)-N-((1R,2R)-1-(2,3-dihydrobenzo[b][1,4]dioxin-6-yl)-1-hydroxy-3-(pyrrolidin-1-yl)propan-2-yl)pyrrolidine-3-carboxamide]", "values": [{"measurement": "IC50", "result": "1 to 30", "unit": "nM"}]}
{"smiles": "O=C(N[C@H](CN1CCCC1)[C@H](O)c1cc(F)c2c(c1)OCCO2)[C@@H]1CCN(c2ccc3cc(Cl)sc3c2)C1", "note": "[Compound 111, (R)-1-(2-chlorobenzo[b]thiophen-6-yl)-N-((1R,2R)-1-(8-fluoro-2,3-dihydrobenzo[b][1,4]dioxin-6-yl)-1-hydroxy-3-(pyrrolidin-1-yl)propan-2-yl)pyrrolidine-3-carboxamide]", "values": [{"measurement": "IC50", "result": "1 to 30", "unit": "nM"}]}
{"smiles": "O=C(N[C@H](CN1CCCC1)[C@H](O)c1ccc(OC2CC2)c(Cl)c1)[C@@H]1CCN(c2cccc(Oc3ccc(Cl)cc3)n2)C1", "note": "[Compound 112, (R)-N-((1R,2R)-1-(3-chloro-4-cyclopropoxyphenyl)-1-hydroxy-3-(pyrrolidin-1-yl)propan-2-yl)-1-(6-(4-chlorophenoxy)pyridin-2-yl)pyrrolidine-3-carboxamide]", "values": [{"measurement": "IC50", "result": "1 to 30", "unit": "nM"}]}
{"smiles": "O=C(N[C@H](CN1CCCC1)[C@H](O)c1ccc2c(c1)OCCO2)[C@@H]1CCN(c2cccc(Oc3ccc(Cl)cc3)n2)C1", "note": "[Compound 113, (R)-1-(6-(4-chlorophenoxy)pyridin-2-yl)-N((1R,2R)-1-(2,3-dihydrobenzo[b][1,4]dioxin-6-yl)-1-hydroxy-3-(pyrrolidin-1-yl)propan-2-yl)pyrrolidine-3-carboxamide]", "values": [{"measurement": "IC50", "result": "1 to 30", "unit": "nM"}]}
{"smiles": "O=C(N[C@H](CN1CCCC1)[C@H](O)c1cc(F)c2c(c1)OCCO2)[C@@H]1CCN(c2cccc(Oc3ccc(Cl)cc3)n2)C1", "note": "[Compound 114, (R)-1-(6-(4-chlorophenoxy)pyridin-2-yl)-N((1R,2R)-1-(8-fluoro-2,3-dihydrobenzo[b][1,4]dioxin-6-yl)-1-hydroxy-3-(pyrrolidin-1-yl)propan-2-yl)pyrrolidine-3-carboxamide]", "values": [{"measurement": "IC50", "result": "1 to 30", "unit": "nM"}]}
{"smiles": "O=C(N[C@H](CN1CCCC1)[C@H](O)c1ccc(OC2CC2)c(Cl)c1)[C@@H]1CCN(c2cccc(Oc3ccc(F)cc3)n2)C1", "note": "[Compound 115, (R)-N-((1R,2R)-1-(3-chloro-4-cyclopropoxyphenyl)-1-hydroxy-3-(pyrrolidin-1-yl)propan-2-yl)-1-(6-(4-fluorophenoxy)pyridin-2-yl)pyrrolidine-3-carboxamide]", "values": [{"measurement": "IC50", "result": "1 to 30", "unit": "nM"}]}
{"smiles": "O=C(N[C@H](CN1CCCC1)[C@H](O)c1cc(F)c2c(c1)OCCO2)[C@@H]1CCN(c2cccc(Oc3ccc(F)cc3)n2)C1", "note": "[Compound 116, (R)-N-((1R,2R)-1-(8-fluoro-2,3-dihydrobenzo[b][1,4]dioxin-6-yl)-1-hydroxy-3-(pyrrolidin-1-yl)propan-2-yl)-1-(6-(4-fluorophenoxy)pyridin-2-yl)pyrrolidine-3-carboxamide]", "values": [{"measurement": "IC50", "result": "1 to 30", "unit": "nM"}]}
{"smiles": "O=C(N[C@H](CN1CCCC1)[C@H](O)c1ccc(OC2COC2)c(Cl)c1)[C@@H]1CCN(c2ccc3cc(F)ccc3c2)C1", "note": "[Compound 117, (R)-N-((1R,2R)-1-(3-chloro-4-(oxetan-3-yloxy)phenyl)-1-hydroxy-3-(pyrrolidin-1-yl)propan-2-yl)-1-(6-fluoronaphthalen-2-yl)pyrrolidine-3-carboxamide]", "values": [{"measurement": "IC50", "result": "1 to 30", "unit": "nM"}]}
{"smiles": "O=C(N[C@H](CN1CCCC1)[C@H](O)c1ccc(OC2CC2)c(Cl)c1)[C@@H]1CCN(c2cc(Oc3ccccn3)ccc2Cl)C1", "note": "[Compound 118, (R)-N-((1R,2R)-1-(3-chloro-4-cyclopropoxyphenyl)-1-hydroxy-3-(pyrrolidin-1-yl)propan-2-yl)-1-(2-chloro-5-(pyridin-2-yloxy)phenyl)pyrrolidine-3-carboxamide]", "values": [{"measurement": "IC50", "result": "1 to 30", "unit": "nM"}]}
{"smiles": "O=C(N[C@H](CN1CCCC1)[C@H](O)c1ccc2c(c1)OCCO2)[C@@H]1CCN(c2cccc(Oc3ccc(F)cc3)n2)C1", "note": "[Compound 119, (R)-N-((1R,2R)-1-(2,3-dihydrobenzo[b][1,4]dioxin-6-yl)-1-hydroxy-3-(pyrrolidin-1-yl)propan-2-yl)-1-(6-(4-fluorophenoxy)pyridin-2-yl)pyrrolidine-3-carboxamide]", "values": [{"measurement": "IC50", "result": "1 to 30", "unit": "nM"}]}
{"smiles": "O=C(N[C@H](CN1CCCC1)[C@H](O)c1cc(F)c2c(c1)OCCO2)[C@@H]1CCN(C(=O)c2ccccc2)C1", "note": "[Compound 120, (R)-1-benzoyl-N-((1R,2R)-1-(8-fluoro-2,3-dihydrobenzo[b][1,4]dioxin-6-yl)-1-hydroxy-3-(pyrrolidin-1-yl)propan-2-yl)pyrrolidine-3-carboxamide]", "values": [{"measurement": "Data Range (% inhibition)", "result": "F (1-49% (or less than 50%))"}]}
{"smiles": "O=C(N[C@H](CN1CCCC1)[C@H](O)c1ccc2c(c1)OCCO2)[C@@H]1CCN(C(=O)c2ccccc2)C1", "note": "[Compound 121, (R)-1-benzoyl-N-((1R,2R)-1-(2,3-dihydrobenzo[b][1,4]dioxin-6-yl)-1-hydroxy-3-(pyrrolidin-1-yl)propan-2-yl)pyrrolidine-3-carboxamide]", "values": [{"measurement": "Data Range (% inhibition)", "result": "NA (not active—a negative value was generated for % inhibition)"}]}
{"smiles": "O=C(N[C@H](CN1CCC1)[C@H](O)c1ccc(OC2COC2)c(Cl)c1)[C@@H]1CCN(c2ccc3cc(F)ccc3c2)C1", "note": "[Compound 122, (R)-N-((1R,2R)-3-(azetidin-1-yl)-1-(3-chloro-4-(oxetan-3-yloxy)phenyl)-1-hydroxypropan-2-yl)-1-(6-fluoronaphthalen-2-yl)pyrrolidine-3-carboxamide]", "values": [{"measurement": "IC50", "result": "1 to 30", "unit": "nM"}]}
{"smiles": "O=C(N[C@H](CN1CCCC1)[C@H](O)c1ccc2c(c1)OCCO2)[C@@H]1CCN(c2cccc(-c3ccc(F)cc3)n2)C1", "note": "[Compound 123, (R)-N-((1R,2R)-1-(2,3-dihydrobenzo[b][1,4]dioxin-6-yl)-1-hydroxy-3-(pyrrolidin-1-yl)propan-2-yl)-1-(6-(4-fluorophenyl)pyridin-2-yl)pyrrolidine-3-carboxamide]", "values": [{"measurement": "IC50", "result": "1 to 30", "unit": "nM"}]}
{"smiles": "O=C(N[C@H](CN1CCCC1)[C@H](O)c1cc(F)c2c(c1)OCCO2)[C@@H]1CCN(c2cccc(-c3ccc(F)cc3)n2)C1", "note": "[Compound 124, (R)-N-((1R,2R)-1-(8-fluoro-2,3-dihydrobenzo[b][1,4]dioxin-6-yl)-1-hydroxy-3-(pyrrolidin-1-yl)propan-2-yl)-1-(6-(4-fluorophenyl)pyridin-2-yl)pyrrolidine-3-carboxamide]", "values": [{"measurement": "IC50", "result": "1 to 30", "unit": "nM"}]}
{"smiles": "Cn1ncc2cc(N3CC[C@@H](C(=O)N[C@H](CN4CCCC4)[C@H](O)c4cc(F)c5c(c4)OCCO5)C3)ccc21", "note": "[Compound 125, (R)-N-((1R,2R)-1-(8-fluoro-2,3-dihydrobenzo[b][1,4]dioxin-6-yl)-1-hydroxy-3-(pyrrolidin-1-yl)propan-2-yl)-1-(1-methyl-1H-indazol-5-yl)pyrrolidine-3-carboxamide]", "values": [{"measurement": "Data Range (% inhibition)", "result": "E (50-74% (or less than 75%))"}]}
